Data published in patent US10233195B2, “Anti-fibrotic pyridinones” (InterMune, Inc., priority 2014, dated 2019).

Test system: TGF-b induced Endothelin-1 production
Assay: ET-1 assay: inhibitory effect on TGF-b induced endothelin-1 production
Format: cell-based
Settings: Homo sapiens, Fibroblast; fibroblasts, stimulant (TGFb, serum, LPA etc), ET-1 in media by ELISA, 4-parameter fit
Procedure: Assay of Inhibitory Effect on TGF-b Induced Endothelin-1 Production
Fibroblasts (primary human lung and dermal, HFL-1, 3T3 etc) are seeded in 96-well plates at ˜15000 cells/well and serum starved for 0-48 hours. After media exchange, compounds serially diluted in DMSO are added to the cells. After a brief incubation of ˜30 min, stimulants (TGFb, serum, LPA etc) are added followed by further incubation for 16-48 hours. Media is then harvested and stored frozen in plate format for later endothelin-1 (ET-1) determination by ELISA. Toxicity measurements are made using the ATPlite kit (Perkin-Elmer). ET-1 is quantified using an ELISA kit (R&D Systems). The amount of ET-1 produced in the assay wells are back-calculated using the ELISA standard. The ability of a compound to inhibit ET-1 production is typically analyzed by fitting dose-response curves to a 4-parameter logistic function to obtain an EC50 value. A measure of cytotoxicity (CC50) is likewise reported from the same experiment using the ATPlite data.
Compounds of some embodiments were prepared according to synthetic methods described herein and assay data obtained for EC50 against ET-1. The assay data obtained is presented in Table 2, in which A=less than 50 μM, B=greater than or equal to 50 μM and less than or equal to 200 μM; and C=greater than 200 μM.

| Compound | EC50 [µM] |
| --- | --- |
| Cc1cc(=O)n(-c2cccc3c2OCCO3)cc1-c1cnn(C)c1 [Compound 231] | 50 to 200 |
| O=c1ccc(Br)cn1-c1cccc(C(F)(F)F)c1 [Compound 268] | > 200 |
| CCOc1ccc(-n2cc(-c3cnn(C)c3)c(NCc3ccc(OCCOC)cc3)cc2=O)c(C)c1 [Compound 707] | < 50 |
| Cc1cc(=O)n(-c2ccc(Cl)cc2)cc1-c1ccc2ocnc2c1 [Compound 422] | > 200 |
| CC(=O)Nc1cc(=O)n(-c2ccc(OC(F)(F)F)cc2)cc1-c1cnn(C)c1 [Compound 141] | > 200 |
| CCOc1ccc(-n2cc(-c3ccc4ocnc4c3)c(C)cc2=O)c(C)c1 [Compound 420] | 50 to 200 |
| Cc1cc(=O)n(-c2ccc(OC(F)(F)F)cc2)cc1C [Compound 367] | > 200 |
| Cn1cc(-c2cn(-c3ccc(OC(F)(F)F)cc3)c(=O)cc2OCCN2CCCC2=O)cn1 [Compound 146] | > 200 |
| CCc1cc(=O)n(-c2ccc(OC(F)(F)F)cc2)cc1-c1ccc(F)cc1 [Compound 199] | 50 to 200 |
| O=c1ccc(-c2cccc(Cl)c2)cn1-c1cccc(C(F)(F)F)c1 [Compound 318] | < 50 |
| CC(=O)Nc1cc(=O)n(-c2ccc(OC(F)(F)F)cc2)cc1-c1ccc(F)cc1 [Compound 104] | > 200 |
| Cc1cc(=O)n(-c2ccc(OC(F)(F)F)cc2)cc1-c1cccnc1 [Compound 241] | > 200 |
| O=c1ccc(-c2cn[nH]c2)cn1-c1ccc(F)cc1 [Compound 377] | 50 to 200 |
| CC(=O)Nc1cccc(-n2cc(C(F)(F)F)ccc2=O)c1 [Compound 277] | > 200 |
| Cc1cc(=O)n(-c2cccc(OC(F)(F)F)c2)cc1-c1ccc(F)cc1 [Compound 174] | < 50 |
| CCOc1ccc(-n2cc(-c3cccc(Cl)c3)ccc2=O)c(C)c1 [Compound 321] | < 50 |
| COc1ccc(-c2ccc(=O)n(-c3cccc(OC)c3)c2)cc1 [Compound 309] | 50 to 200 |
| Cc1cc(=O)n(-c2ccc(OC(F)(F)F)cc2)cc1-c1cnsc1 [Compound 264] | > 200 |
| C#Cc1ccc(=O)n(-c2ccccc2)c1 [Compound 287] | > 200 |
| Cc1cc(=O)n(-c2ccc(C(F)(F)F)cc2)cc1-c1cnn(C)c1 [Compound 228] | 50 to 200 |
| Cn1cc(-c2cn(-c3ccc(OC(F)(F)F)cc3)c(=O)cc2NCc2ncccn2)cn1 [Compound 529] | > 200 |

| Compound | EC50 [µM] |
| --- | --- |
| Cn1cc(-c2cn(-c3ccc(OC(F)(F)F)cc3)c(=O)cc2C(=O)O)cn1 [Compound 158] | > 200 |
| O=c1ccc(C2CCCCC2)cn1-c1ccccc1 [Compound 66] | 50 to 200 |
| Cc1cc(=O)n(-c2cccc(OC(F)(F)F)c2)cc1-c1cnn(C)c1 [Compound 227] | > 200 |
| CCn1c(=O)oc2c(-c3cn(-c4ccc(OC(F)(F)F)cc4)c(=O)cc3C)cccc21 [Compound 556] | > 200 |
| COCCOc1ccc(-n2cc(-c3ccccc3)c(C)cc2=O)cc1 [Compound 26] | < 50 |
| COc1cccc(-n2cc(-c3cn[nH]c3)ccc2=O)c1 [Compound 375] | > 200 |
| CCn1ccc2c(=O)n(-c3ccc(OC(F)(F)F)cc3)cc(-c3cnn(C)c3)c21 [Compound 694] | < 50 |
| O=c1c2[nH]nnc2c(-c2cn[nH]c2)cn1-c1ccc(OC(F)(F)F)cc1 [Compound 678] | 50 to 200 |
| O=c1ccc(C2CCCC2)cn1-c1ccccc1 [Compound 64] | 50 to 200 |
| O=c1ccc(-c2ccc(F)cc2)cn1CCc1ccccc1 [Compound 77] | 50 to 200 |
| CCOc1ccc(-n2cc(-c3cnn(C)c3)c(NCc3ccccn3)cc2=O)c(C)c1 [Compound 699] | 50 to 200 |
| COCCOc1cc(=O)n(-c2ccc(OC(F)(F)F)cc2)cc1-c1cnn(C)c1 [Compound 144] | > 200 |
| Cc1cc(=O)n(-c2cccc(NC(N)=O)c2)cc1-c1cnn(C)c1 [Compound 628] | < 50 |
| CNc1cc(=O)n(-c2ccc(OC(F)(F)F)cc2)cc1-c1ccc(F)cc1 [Compound 90] | > 200 |
| Cc1cc(=O)n(-c2cccc(OC(F)(F)F)c2)cc1-c1ccccc1 [Compound 166] | < 50 |
| O=c1c2cccnc2c(-c2cn[nH]c2)cn1-c1ccc(OC(F)(F)F)cc1 [Compound 579] | > 200 |
| CCOc1ccc(-n2cc(-c3cnn(C)c3)c3c(c2=O)CCCC3)c(C)c1 [Compound 35] | < 50 |
| Cn1cc(-c2cn(-c3ccc(OC(F)(F)F)cc3)c(=O)cc2Oc2cccc(F)c2)cn1 [Compound 409] | < 50 |
| COc1cccc(-n2cc(Br)ccc2=O)c1 [Compound 266] | > 200 |
| Cc1cc(=O)n(-c2ccccc2)cc1C [Compound 366] | > 200 |
| O=c1ccc(-c2cncnc2)cn1-c1cccc(F)c1 [Compound 345] | > 200 |

| Compound | EC50 [µM] |
| --- | --- |
| COCCOc1ccc(-n2cc(-c3ccc(F)cc3)c(C)cc2=O)cc1 [Compound 23] | 50 to 200 |
| O=c1c2ccc(C(F)(F)F)nc2c(-c2ccc(F)cc2)cn1-c1ccc(OC(F)(F)F)cc1 [Compound 38] | > 200 |
| Cn1cc(-c2c[nH]c(=O)c3[nH]ccc23)cn1 [Compound 612] | < 50 |
| COc1cc(-n2cc(-c3cnn(C)c3)c(C)cc2=O)cc(OC)c1OC [Compound 221] | > 200 |
| COc1cccc(-n2cc(C(C)=O)ccc2=O)c1 [Compound 14] | > 200 |
| C[C@@H]1CCC(=O)N(c2ccccc2)C1 [Compound 84] | > 200 |
| Cc1ccc(=S)n(-c2cccc(F)c2)c1 [Compound 338] | > 200 |
| O=c1ncc(-c2ccc(F)cc2)cn1-c1ccc(OC(F)(F)F)cc1 [Compound 357] | > 200 |
| O=c1ccc(C2CCC2)cn1-c1ccccc1 [Compound 65] | > 200 |
| Cn1cc(-c2ccc(=O)n(-c3ccccc3)n2)cn1 [Compound 361] | > 200 |
| Cn1ccc2c(-c3cn[nH]c3)cn(-c3ccc(Cl)cc3)c(=O)c21 [Compound 598] | < 50 |
| Cn1cc(-c2cn(-c3cccc(NC(N)=O)c3)c(=O)cc2Oc2ccccc2)cn1 [Compound 537] | < 50 |
| CC(=O)Nc1cccc(-n2cc(C(C)=O)ccc2=O)c1 [Compound 18] | > 200 |
| Cn1cc(-c2cn(-c3ccc(OC(F)(F)F)cc3)c(=O)c3nc[nH]c23)cn1 [Compound 57] | > 200 |
| CCOc1ccc(-n2cc(-c3cn[nH]c3)c3c(c2=O)CCCC3)c(C)c1 [Compound 36] | < 50 |
| O=c1ccc(-c2cncnc2)cn1-c1ccccc1F [Compound 346] | > 200 |
| CCOc1ccc(-n2cc(-c3ccc(F)cc3)c(Cl)cc2=O)c(C)c1 [Compound 541] | > 200 |
| CCOc1ccc(Oc2cc(=O)n(-c3ccc(OC(F)(F)F)cc3)cc2-c2cnn(C)c2)cc1C [Compound 154] | > 200 |
| O=c1c2c(c(-c3cn[nH]c3)cn1-c1ccc(OC(F)(F)F)cc1)CCCC2 [Compound 37] | 50 to 200 |
| O=c1c2scnc2c(-c2cn[nH]c2)cn1-c1ccc(OC(F)(F)F)cc1 [Compound 582] | < 50 |
| Cc1ccc(=O)n(-c2ccccc2F)c1 [Compound 283] | > 200 |

| Compound | EC50 [µM] |
| --- | --- |
| COc1ccc(-n2cc(-c3cn[nH]c3)ccc2=O)cc1 [Compound 370] | > 200 |
| O=c1ccc(C(F)(F)F)cn1-c1cncnc1 [Compound 279] | > 200 |
| Cc1n[nH]c(C)c1-c1ccc(=O)n(-c2ccncc2)c1 [Compound 390] | > 200 |
| O=c1ncc(-c2ccc(F)cc2)cn1-c1ccccc1 [Compound 356] | 50 to 200 |
| CC(=O)Nc1cccc(-n2cc(Br)ccc2=O)c1 [Compound 271] | > 200 |
| Cc1cc(=O)n(-c2cccc(N)c2)cc1-c1ccc(F)cc1 [Compound 187] | 50 to 200 |
| CC(=O)c1ccc(=O)n(-c2ccccc2Cl)c1 [Compound 19] | 50 to 200 |
| Cc1cc(=O)n(-c2ccc(OC(F)(F)F)cc2)cc1-c1cnc2nccn2c1 [Compound 248] | > 200 |
| Cc1cc(=O)n(-c2ccc(OC(F)(F)F)cc2)cc1C(F)(F)F [Compound 368] | > 200 |
| COc1ccc(-c2ccc(=O)n(-c3ccc(Cl)cc3)c2)cc1 [Compound 303] | 50 to 200 |
| Cc1cc(=O)n(-c2cccc(C(F)(F)F)c2)cc1-c1cnn(C)c1 [Compound 226] | > 200 |
| COCCOc1ccc(Oc2cc(=O)n(-c3ccc(OC(F)(F)F)cc3)cc2-c2cnn(C)c2)cc1 [Compound 533] | 50 to 200 |
| CCn1c(=O)oc2ccc(-c3cn(-c4ccc(OC(F)(F)F)cc4)c(=O)cc3C)cc21 [Compound 554] | > 200 |
| O=c1c2cccnc2c(-c2ccc(F)cc2)cn1-c1ccc(OC(F)(F)F)cc1 [Compound 42] | > 200 |
| CC(C)n1cc(-c2cn(-c3ccc(OC(F)(F)F)cc3)c(=O)c3c2ncn3C)cn1 [Compound 673] | < 50 |
| O=c1c2c(c(-c3cccc(F)c3)cn1-c1ccc(OC(F)(F)F)cc1)CCCC2 [Compound 34] | < 50 |
| Cc1n[nH]c(C)c1-c1ccc(=O)n(-c2ccc(OC(C)C)cc2)c1 [Compound 382] | 50 to 200 |
| CCOc1ccc(-n2cc(-c3cnn(C)c3)c(NCc3ccc(C#N)cc3)cc2=O)c(C)c1 [Compound 704] | < 50 |
| O=c1ccc(-c2cn[nH]c2)cn1-c1ccc(Cl)cc1 [Compound 371] | > 200 |
| CCOCCn1ccc2c(-c3cn[nH]c3)cn(-c3ccc(OC(F)(F)F)cc3)c(=O)c21 [Compound 691] | < 50 |
